Test results: US20170081286A1, “2-[[[2-[(HYDROXYACETYL)AMINO]-4-PYRIDINYL]METHYL]THIO]-N-[4-(TRIFLUOROMETHOXY)PHENYL]-3-PYRIDINECARBOXAMIDE BENZENESULFONATE, CRYSTAL OF SAME, CRYSTAL POLYMORPH THEREOF, AND METHODS FOR PRODUCTION THEREOF” (Santen Pharmaceutical Co., Ltd., priority 2009, published 2017)

Legend:
[1] = test system: Crl:CD (SD) rat; test: Rat 4-week repeated oral administration toxicity test of benzenesulfonate of compound A, stomach histopathology; format: in vivo; settings: once a day, 4 weeks, 30 mg/kg
Description: (§1) i) To Crl:CD (SD) rat was orally administered compound A ([…]) suspended in a 1% methylcellulose liquid once a day for 7 days. ii) After completion of the administration, the rat was exsanguinated to death under ether anesthesia, then the stomach was removed, fixed in a 10% neutral buffered formalin aqueous solution, and then stained with hematoxylin-eosin to prepare a specimen, and the change in the stomach was observed histopathologically. 2) Rat 4-week repeated oral administration toxicity test of benzenesulfonate of compound A
as §1, with “administered benzenesulfonate of” for “administered”, “4 weeks.” for “7 days.”, “histopathologically.” for “histopathologically. 2) Rat 4-week repeated oral administration toxicity test of benzenesulfonate of compound A”

[2] = Storage stability test of salts of compound A (1-week preliminary stability test, content by HPLC); format: physicochemical; settings: for decomposition / decrease in purity on storage (in words): 1-week preliminary stability test (severe test), light, humidity and other factors; for content of salt of compound A after storage, relative to the content before storage of 100%: HPLC
Description: For examining the storage stability for these salts with compound A, a 1-week preliminary stability test (severe test) was executed.
<Storage Stability Tests for Benzenesulfonate, Methanesulfonate and p-Toluenesulfonate of Compound A (1-Week Preliminary Stability Test)>
For benzenesulfonate, methanesulfonate and p-toluenesulfonate of compound A, after storing under the conditions of 40° C. 75% RH, 60° C. or light (1000 lux/hr), the content of each salt of compound A was measured by HPLC. The percentage of change, relative to the content before storage of 100%, was calculated.

[3] = test system: VEGF-induced HUVEC proliferation; settings: described in PTL 1; cited from earlier work
[4] = test system: Crl:CD (SD) rat; test: Rat 1-week repeated oral administration toxicity test of compound A (free body), stomach histopathology; format: in vivo; settings: once a day, 1 week (7 days), 30 mg/kg
Description: 1) Rat 1-week repeated oral administration toxicity test of compound A (free body)
as §1

[5] = test system: rat adjuvant arthritis model; settings: described in PTL 1; cited from earlier work
[6] = test system: tumor-bearing mouse model; settings: described in PTL 1; cited from earlier work
[7] = test system: rat choroidal neovascularization model; settings: described in PTL 1; cited from earlier work

## O=C(CO)Nc1cc(CSc2ncccc2C(=O)Nc2ccc(OC(F)(F)F)cc2)ccn1.O=S(=O)(O)c1ccccc1 [benzenesulfonate of compound A, benzenesulfonate of 2-[[[2-[(hydroxyacetyl)amino]-4-pyridinyl]methyl]thio]-N-[4-(trifluoromethoxy)phenyl]-3-pyridinecarboxamide]
[1]
  mineral deposition in the stomach: not observed
[2]
  decomposition / decrease in purity on storage (in words): did not show a decrease in purity
[2]; 40° C. 75% RH/1 week
  content of salt of compound A after storage, relative to the content before storage of 100%: 100.0%
[2]; 60° C./1 week
  content of salt of compound A after storage, relative to the content before storage of 100%: 100.0%
[2]; 1000 lux/hr, 1 week
  content of salt of compound A after storage, relative to the content before storage of 100%: 100.0%

## O=C(CO)Nc1cc(CSc2ncccc2C(=O)Nc2ccc(OC(F)(F)F)cc2)ccn1 [compound A, 2-[[[2-[(hydroxyacetyl)amino]-4-pyridinyl]methyl]thio]-N-[4-(trifluoromethoxy)phenyl]-3-pyridinecarboxamide]
[3]
  cell proliferation inhibiting effect: exhibits a cell proliferation inhibiting effect
[4]
  mineral deposition in the stomach: observed
[5]
  paw edema suppressing effect: exhibits a paw edema suppressing effect
[6]
  tumor proliferation suppressing effect: exhibits a tumor proliferation suppressing effect
[7]
  choroidal neovascularization inhibiting effect: exhibits a choroidal neovascularization inhibiting effect

## CS(=O)(=O)O.O=C(CO)Nc1cc(CSc2ncccc2C(=O)Nc2ccc(OC(F)(F)F)cc2)ccn1 [methanesulfonate of compound A]
[2]
  decomposition / decrease in purity on storage (in words): decomposed by light
[2]; 40° C. 75% RH/1 week
  content of salt of compound A after storage, relative to the content before storage of 100%: 99.8%
[2]; 60° C./1 week
  content of salt of compound A after storage, relative to the content before storage of 100%: 99.9%
[2]; 1000 lux/hr, 1 week
  content of salt of compound A after storage, relative to the content before storage of 100%: 99.1%

## p-toluenesulfonate
[2]
  decomposition / decrease in purity on storage (in words): decomposed by humidity
[2]; 40° C. 75% RH/1 week
  content of salt of compound A after storage, relative to the content before storage of 100%: 92.3%
[2]; 60° C./1 week
  content of salt of compound A after storage, relative to the content before storage of 100%: 99.3%
[2]; 1000 lux/hr, 1 week
  content of salt of compound A after storage, relative to the content before storage of 100%: 99.8%
